Source: patent publication US20100003712A1, “BIOMARKER FOR ASSESSING RESPONSE TO CHYMASE TREATMENT” (priority 2008, published 2010)
One block for each molecule: values may come before it.

Assays:
[1] = biological target: T1, recombinant human chymase (Homo sapiens, UniProt P23946); assay: reversal of chymase-induced decrease of IL-18 levels in human saliva (ELISA); format: biochemical; settings: 37° C.; for reversal of chymase-induced reduction of IL-18 levels: chymase 2 μg/ml, COMPOUND No. 3 1 μM or chymostatin 3 μg/ml, 1 h; for dose-dependent reversal of chymase-induced decrease of IL-18 levels: 0-10,000 nM compound, human saliva; for dose-dependent reversal of chymase-induced decrease of IL-18 levels / IC50: 80 nM chymase, 1 hr; for IC50: n=3, ELISA, read-out: IC50 for reversal of chymase-induced IL-18 reduction
T1 construct: made in house
T1 sequence (P23946 22-247): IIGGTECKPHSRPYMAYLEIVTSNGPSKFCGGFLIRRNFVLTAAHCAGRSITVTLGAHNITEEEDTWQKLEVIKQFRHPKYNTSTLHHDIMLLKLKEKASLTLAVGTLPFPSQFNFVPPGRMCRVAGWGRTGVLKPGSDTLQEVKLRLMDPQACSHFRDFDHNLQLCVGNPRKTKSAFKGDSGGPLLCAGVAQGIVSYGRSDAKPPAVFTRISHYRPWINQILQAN
Experimental: (§1) The digestion was measured using the enzyme-linked immunosorbent assay (ELISA) kit (R&D Systems). […] As the ELISA detection provided quantitative measurement and high-throughput screening capacity, it was used for the following experiments.
Next, activities of the recombinant chymase and COMPOUND NO. 3 were examined with endogenous IL-18.
The dose effects of the chymase inhibitors on IL-18 levels were also examined. […] The IL-18 levels were measured using ELISA as described above.
Next, the effects of various serine proteases and inhibitors on IL-18 levels were examined.

endogenous IL-18 = assay: effect of serine proteases on endogenous IL-18 levels in saliva samples (ELISA); format: biochemical, human; settings: 37° C.; for effect of serine protease on IL-18 levels: saliva, 1 h, chymase 2, cathepsin G 2, elastase 0.5, proteinase 3 2, tryptase 1 μg/ml
Experimental: Next, activities of the recombinant chymase and COMPOUND NO. 3 were examined with endogenous IL-18. One ml of saliva samples were collected from six subjects and incubated with vehicle (DMSO/PBS), chymase (80 nM), and chymase+COMPOUND No. 3 (1 μM) at 37° C. for 3 hr.
To determine the dose effects of the recombinant chymase on IL-18 levels, 1-300 nM of the recombinant chymase were incubated with saliva samples at 37° C. for 1 hr.
(§2) Next, the effects of various serine proteases and inhibitors on IL-18 levels were examined. The saliva samples were incubated with vehicle (DMSO/PBS), chymase (2 μg/ml), COMPOUND No. 3 (1 μM), chymase (2 μg/ml)+COMPOUND No. 3 (1 μM), chymostatin (3 μg/ml), chymase (2 μg/ml)+chymostatin (3 μg/ml), cathepsin G (2 μg/ml), cathepsin G (2 μg/ml)+COMPOUND No. 3 (1 μM), elastase (0.5 μg/ml), elastase (0.5 μg/ml)+COMPOUND No. 3 (1 μM), proteinase 3 (2 μg/ml), proteinase 3 (2 μg/ml)+COMPOUND No. 3 (1 μM), tryptase (1 μg/ml), or tryptase (1 μg/ml)+COMPOUND 3 (1 μM) at 37° C. for 1 h. […] In contrast, cathepsin G and elastase had no effect on IL-18 levels. […] However, the reduction of IL-18 by these two enzymes was not reversed by COMPOUND No. 3.

IL-18 levels in saliva = assay: IL-18 levels in human saliva after 14 days of dosing; format: in vivo; settings: human subjects
Experimental: To examine the dose effects of COMPOUND NO. 1 on the IL-18 levels, subjects were treated with 0, 100, 600 mg of COMPOUND NO. 1 for 14 days and the saliva samples were collected. IL-18 levels in the samples were measured by ELISA as described above. […] 1 at 600 mg as compared to the placebo group (FIG. 8). The IL-18 levels were similar in the placebo group and the subjects treated with COMPOUND NO. 1 at 100 mg.

other serine proteases = settings: cited from earlier work
proteinase 3 = biological target: T2, proteinase 3 (Homo sapiens, UniProt P24158); assay: reversal of proteinase 3-induced reduction of IL-18 in saliva (ELISA); format: biochemical; settings: proteinase 3 2 μg/ml + compound 1 μM; 37° C., 1 h
T2 sequence (P24158 28-248): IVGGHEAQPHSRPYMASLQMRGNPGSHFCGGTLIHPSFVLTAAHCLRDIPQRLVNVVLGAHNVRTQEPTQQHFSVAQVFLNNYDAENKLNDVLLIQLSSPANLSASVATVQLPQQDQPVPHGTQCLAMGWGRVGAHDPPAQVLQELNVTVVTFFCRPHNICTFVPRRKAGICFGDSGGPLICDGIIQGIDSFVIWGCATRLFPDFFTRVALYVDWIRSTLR
Experimental: as §2

[2] = test system: endogenous chymase activity and other proteases activity in saliva samples; assay: IL-18 levels in saliva samples incubated with protease inhibitors, no added chymase (ELISA); format: biochemical, human; settings: 37° C., 1 hour
Experimental: To determine the effects of additional protease inhibitors on the endogenous IL-18 levels, the pan protease inhibitors and/or COMPOUND No. 3 were incubated with saliva samples at 37° C. for 1 hour. […] Ten μM of COMPOUND NO.

tryptase = assay: reversal of tryptase-induced reduction of IL-18 in saliva (ELISA); format: biochemical; settings: tryptase 1 μg/ml + compound 1 μM; 37° C., 1 h
Experimental: as §2

[3] = test system: recombinant mature human IL-18; assay: cleavage of recombinant mature human IL-18 by chymase (Western blot, ELISA); format: biochemical; settings: 37° C.
Experimental: A recombinant human chymase was generated according to Kervinen et al. (2008). A hundred ng of the recombinant mature human IL-18 (rIL-18, R&D Systems, 614 McKinley Place NE, Minneapolis, Minn. 55413) was incubated with the recombinant chymase (w/w 1:25) in PBS at 37° C. for various time points. The digestion products were separated on a 4-12% gradient gel. Western blot analysis was done with a specific monoclonal antibody against human IL-18. […] The exact cleavage sites were not clear. Without being bound to any theory, the mature IL-18 may be cleaved by the recombinant human chymase into the ˜16 kD fragment which may be further degraded into the ˜12 kD fragment. […] In addition, the chymase-induced cleavage of rIL-18 was both time (FIG. 1A) and dose dependent (FIG. 1B).
as §1

- reversal of chymase-induced reduction of IL-18 levels [1]: reversed the reduction
Molecule: CC(C)C[C@H](NC(=O)[C@@H](NC(=O)N[C@@H](Cc1ccccc1)C(=O)O)[C@@H]1CCN=C(N)N1)C(=O)N[C@H](C=O)Cc1ccccc1 [chymostatin, reference compound]

Molecule: elastase
- effect of serine protease on IL-18 levels (endogenous IL-18): no effect

- dose-dependent reversal of chymase-induced decrease of IL-18 levels [1]: dose-dependently reversed
- IC50 [1]: 1460 ± 563 nM
Molecule: CC(C)OC(=O)OCOP(=O)(O)C(C(=O)N/C=C/c1cc(Cl)cc(Cl)c1)c1csc2ccc(Cl)cc12 (stereo not shown) [COMPOUND NO. 2]

Molecule: CP(=O)(O)C(C(=O)N/C=C/c1ccc(F)c(F)c1)c1csc2ccc(Cl)cc12 (stereo not shown) [COMPOUND NO. 1]
- IL-18 levels in saliva compared to the placebo group, 100 mg (IL-18 levels in saliva; 100 mg for 14 days): similar
- IL-18 levels in saliva compared to the placebo group, 600 mg (IL-18 levels in saliva; 600 mg for 14 days, p<0.03): significant increase
- cross activity with other serine proteases (other serine proteases): little or no cross activity

- reversal of proteinase 3-induced reduction of IL-18 (proteinase 3): not reversed
- dose-dependent reversal of chymase-induced decrease of IL-18 levels [1]: dose-dependently reversed
- IC50 [1]: 3600 ± 928 nM
- reversal of chymase-induced decrease of IL-18 levels, subjects 1-3 and 6 ([1]; chymase 80 nM + compound 1 μM, 3 hr, subjects 1-3 and 6): reversed completely
- reversal of chymase-induced decrease of IL-18 levels, subjects 4 and 5 ([1]; chymase 80 nM + compound 1 μM, 3 hr, subjects 4 and 5): reverted to a large degree
- reversal of chymase-induced reduction of IL-18 levels [1]: reversed this reduction
- reversal of chymase-induced decrease of IL-18 levels ([1]; saliva of six subjects, chymase 80 nM + compound 1 μM, 3 hr): reversed or prevented
- reversal of the decrease in IL-18 levels in incubated saliva ([2]; 1 or 10 μM): reversed some of the decrease
- increase of IL-18 levels at 10 μM compared with 1 μM [2]: almost two fold
- reversal of tryptase-induced reduction of IL-18 (tryptase): not reversed
Molecule: O=C(N/C=C/c1cc(Cl)cc(Cl)c1)C(c1csc2ccc(Cl)cc12)P(=O)(O)O (stereo not shown) [COMPOUND NO. 3]

B1: cathepsin G: serine protease (protein, UniProt P08311 21-244, looked up)
Cathepsin G: IIGGRESRPHSRPYMAYLQIQSPAGQSRCGGFLVREDFVLTAAHCWGSNINVTLGAHNIQRRENTQQHITARRAIRHPQYNQRTIQNDIMLLQLSRRVRRNRNVNPVALPRAQEGLRPGTLCTVAGWGRVSMRRGTDTLREVQLRVQRDRQCLRIFGSYDPRRQICVGDRRERKAAFKGDSGGPLLCNNVAHGIVSYGKSSGVPPEVFTRVSSFLPWIRTTMRS
- effect of serine protease on IL-18 levels (endogenous IL-18): no effect

- EC50 (endogenous IL-18; 1-300 nM chymase in saliva samples, 1 hr, n=3): 60.4 ± 15.2 nM
B2: recombinant chymase: recombinant human chymase generated according to Kervinen et al. (2008) (protein, UniProt P23946 22-247, looked up)
Chymase: T1 sequence (P23946 22-247)
- effect on immunoreactivity or levels of endogenous IL-18 (endogenous IL-18; chymase 80 nM, saliva of six subjects, 3 hr): decrease
- effect of serine protease on IL-18 levels (endogenous IL-18): reduced
- rIL-18 immunoreactivity or levels in the presence of chymase, PBS ([3]; 80 nM chymase, 4 mg/ml rIL-18, PBS, 1.5 h, without chymase ~4000): ~1300 ng/mL
- rIL-18 immunoreactivity or levels in the presence of chymase, saliva ([3]; 80 nM chymase, 4 mg/ml rIL-18, saliva, 1.5 h, without chymase ~3,000): ~1,000 ng/ml
- cleavage of mature human IL-18 (Western blot) ([3]; 100 ng rIL-18, chymase w/w 1:25, PBS, fragments ~16 and ~12 kD): able to cleave

B3: Proteinase 3: serine protease (protein, UniProt P24158 28-248, looked up)
Myeloblastin: T2 sequence (P24158 28-248)
- effect of serine protease on IL-18 levels (endogenous IL-18): reduced IL-18 levels significantly
